In ChEMBL document CHEMBL1275522, “Antimicrobial studies with the Pseudomonas aeruginosa two-allele library require caution” (2008):
≈ marks a conversion by molar mass, not a printed value.

What was measured:
Assay type in all cases: functional
[1] = tested on: Pseudomonas aeruginosa; experiment: Antimicrobial against Pseudomonas aeruginosa 40198 harboring nirJ allele by Etest method
[2] = tested on: Pseudomonas aeruginosa; experiment: Antimicrobial against Pseudomonas aeruginosa 8666 by Etest method
[3] = tested on: Pseudomonas aeruginosa; experiment: Antimicrobial against Pseudomonas aeruginosa PAO1 by Etest method
[4] = tested on: Pseudomonas aeruginosa; experiment: Antimicrobial against Pseudomonas aeruginosa 3208 harboring phzM allele by Etest method
[5] = tested on: Pseudomonas aeruginosa; experiment: Antimicrobial against Pseudomonas aeruginosa 30848 harboring phoU allele by Etest method
[6] = tested on: Pseudomonas aeruginosa; experiment: Antimicrobial against Pseudomonas aeruginosa 33410 harboring phoU allele by Etest method
[7] = tested on: Pseudomonas aeruginosa; experiment: Antimicrobial against Pseudomonas aeruginosa 312 harboring PBPP allele by Etest method
[8] = tested on: Pseudomonas aeruginosa; experiment: Antimicrobial against Pseudomonas aeruginosa 3894 by Etest method
[9] = tested on: Pseudomonas aeruginosa; experiment: Antimicrobial against Pseudomonas aeruginosa 3465 harboring tsaA allele by Etest method
[10] = tested on: Pseudomonas aeruginosa; experiment: Antimicrobial against Pseudomonas aeruginosa 8564 harboring pyrX allele by Etest method
[11] = tested on: Pseudomonas aeruginosa; experiment: Antimicrobial against Pseudomonas aeruginosa 9256 harboring ybhO allele by Etest method
[12] = tested on: Pseudomonas aeruginosa; experiment: Antimicrobial against Pseudomonas aeruginosa 46396 harboring katA allele by Etest method
[13] = tested on: Pseudomonas aeruginosa; experiment: Antimicrobial against Pseudomonas aeruginosa 32455 harboring phzS allele by Etest method
[14] = tested on: Pseudomonas aeruginosa; experiment: Antimicrobial against Pseudomonas aeruginosa 1494 harboring phnA allele by Etest method
[15] = tested on: Pseudomonas aeruginosa; experiment: Antimicrobial against Pseudomonas aeruginosa 3434 by Etest method
[16] = tested on: Pseudomonas aeruginosa; experiment: Antimicrobial against Pseudomonas aeruginosa 3894 by broth dilution method
[17] = tested on: Pseudomonas aeruginosa; experiment: Antimicrobial against Pseudomonas aeruginosa 40198 harboring nirJ allele by broth dilution method
[18] = tested on: Pseudomonas aeruginosa; experiment: Antimicrobial against Pseudomonas aeruginosa 33410 harboring phoU allele by broth dilution method
[19] = tested on: Pseudomonas aeruginosa; experiment: Antimicrobial against Pseudomonas aeruginosa 3465 harboring tsaA allele by broth dilution method
[20] = tested on: Pseudomonas aeruginosa; experiment: Antimicrobial against Pseudomonas aeruginosa 8666 by broth dilution method
[21] = tested on: Pseudomonas aeruginosa; experiment: Antimicrobial against Pseudomonas aeruginosa 9256 harboring ybhO allele by broth dilution method
[22] = tested on: Pseudomonas aeruginosa; experiment: Antimicrobial against Pseudomonas aeruginosa 32455 harboring phzS allele by broth dilution method
[23] = tested on: Pseudomonas aeruginosa; experiment: Antimicrobial against Pseudomonas aeruginosa 3434 by broth dilution method
[24] = tested on: Pseudomonas aeruginosa; experiment: Antimicrobial against Pseudomonas aeruginosa 1494 harboring phnA allele by broth dilution method
[25] = tested on: Pseudomonas aeruginosa; experiment: Antimicrobial against Pseudomonas aeruginosa 46396 harboring katA allele by broth dilution method
[26] = tested on: Pseudomonas aeruginosa; experiment: Antimicrobial against Pseudomonas aeruginosa 312 harboring PBPP allele by broth dilution method
[27] = tested on: Pseudomonas aeruginosa; experiment: Antimicrobial against Pseudomonas aeruginosa PAO1 by broth dilution method
[28] = tested on: Pseudomonas aeruginosa; experiment: Antimicrobial against Pseudomonas aeruginosa 30848 harboring phoU allele by broth dilution method
[29] = tested on: Pseudomonas aeruginosa; experiment: Antimicrobial against Pseudomonas aeruginosa 8564 harboring pyrX allele by broth dilution method
[30] = tested on: Pseudomonas aeruginosa; experiment: Antimicrobial against Pseudomonas aeruginosa 3208 harboring phzM allele by broth dilution method

SMILES | MIC [1] [µg/mL] | MIC [2] [µg/mL] | MIC [3] [µg/mL] | MIC [4] [µg/mL] | MIC [5] [µg/mL] | MIC [16] [µg/mL] | MIC [17] [µg/mL] | MIC [18] [µg/mL] | MIC [19] [µg/mL] | MIC [20] [µg/mL] | MIC [21] [µg/mL] | MIC [22] [µg/mL] | MIC [23] [µg/mL] | MIC [24] [µg/mL] | MIC [25] [µg/mL] | MIC [26] [µg/mL] | MIC [27] [µg/mL] | MIC [28] [µg/mL] | MIC [29] [µg/mL] | MIC [30] [µg/mL] | further results
CC(C)(O/N=C(\C(=O)N[C@@H]1C(=O)N2C(C(=O)[O-])=C(C[n+]3ccccc3)CS[C@H]12)c1csc(N)n1)C(=O)O [CEFTAZIDIME] | 1.5 (≈ 2.74 µM) | 2 (≈ 3.66 µM) | 2 (≈ 3.66 µM) | 2 (≈ 3.66 µM) | 3 (≈ 5.49 µM) |  |  |  |  |  |  |  |  |  |  |  |  |  |  |  | MIC [6]: 1.5 µg/mL (≈ 2.74 µM); MIC [7]: 2 µg/mL (≈ 3.66 µM); MIC [8]: 2.5 µg/mL (≈ 4.57 µM); MIC [9]: 2 µg/mL (≈ 3.66 µM); MIC [10]: 1.5 µg/mL (≈ 2.74 µM); MIC [11]: 2 µg/mL (≈ 3.66 µM); MIC [12]: 2 µg/mL (≈ 3.66 µM); MIC [13]: 2 µg/mL (≈ 3.66 µM); MIC [14]: 1.5 µg/mL (≈ 2.74 µM); MIC [15]: 2.5 µg/mL (≈ 4.57 µM)
O=C(N[C@H](CO)[C@H](O)c1ccc([N+](=O)[O-])cc1)C(Cl)Cl [CHLORAMPHENICOL] |  |  |  |  |  | 12.5 (≈ 38.7 µM) | 12.5 (≈ 38.7 µM) | 12.5 (≈ 38.7 µM) | 12.5 (≈ 38.7 µM) | 12.5 (≈ 38.7 µM) | 12.5 (≈ 38.7 µM) | 12.5 (≈ 38.7 µM) | 25 (≈ 77.4 µM) | 12.5 (≈ 38.7 µM) | 12.5 (≈ 38.7 µM) | 12.5 (≈ 38.7 µM) | 800 (≈ 2480 µM) | 200 (≈ 619 µM) | 12.5 (≈ 38.7 µM) | 12.5 (≈ 38.7 µM) | 
O=C(O)c1cn(C2CC2)c2cc(N3CCNCC3)c(F)cc2c1=O [CIPROFLOXACIN] |  |  |  |  |  | 0.05 (≈ 0.151 µM) | 0.1 (≈ 0.302 µM) | 0.05 (≈ 0.151 µM) | 0.1 (≈ 0.302 µM) | 0.1 (≈ 0.302 µM) | 0.1 (≈ 0.302 µM) | 0.1 (≈ 0.302 µM) | 0.05 (≈ 0.151 µM) | 0.1 (≈ 0.302 µM) | 0.1 (≈ 0.302 µM) | 0.1 (≈ 0.302 µM) | 0.8 (≈ 2.41 µM) | 0.2 (≈ 0.604 µM) | 0.1 (≈ 0.302 µM) | 0.1 (≈ 0.302 µM) | 
C[C@@H](O)[C@H]1C(=O)N2C(C(=O)O)=C(S[C@@H]3CN[C@H](C(=O)N(C)C)C3)[C@H](C)[C@H]12 [MEROPENEM] | 0.25 (≈ 0.652 µM) | 0.25 (≈ 0.652 µM) | 0.38 (≈ 0.991 µM) | 0.38 (≈ 0.991 µM) | 0.5 (≈ 1.3 µM) |  |  |  |  |  |  |  |  |  |  |  |  |  |  |  | MIC [6]: 0.38 µg/mL (≈ 0.991 µM); MIC [7]: 0.25 µg/mL (≈ 0.652 µM); MIC [8]: 0.19 µg/mL (≈ 0.495 µM); MIC [9]: 0.25 µg/mL (≈ 0.652 µM); MIC [10]: 0.38 µg/mL (≈ 0.991 µM); MIC [11]: 0.25 µg/mL (≈ 0.652 µM); MIC [12]: 0.25 µg/mL (≈ 0.652 µM); MIC [13]: 0.25 µg/mL (≈ 0.652 µM); MIC [14]: 0.38 µg/mL (≈ 0.991 µM); MIC [15]: 0.38 µg/mL (≈ 0.991 µM)
CCn1cc(C(=O)O)c(=O)c2cc3c(cc21)OCO3 [OXOLINIC ACID] |  |  |  |  |  | 8 (≈ 30.6 µM) | 8 (≈ 30.6 µM) | 4 (≈ 15.3 µM) | 4 (≈ 15.3 µM) | 8 (≈ 30.6 µM) | 8 (≈ 30.6 µM) | 4 (≈ 15.3 µM) | 4 (≈ 15.3 µM) | 8 (≈ 30.6 µM) | 8 (≈ 30.6 µM) | 8 (≈ 30.6 µM) | 64 (≈ 245 µM) | 16 (≈ 61.2 µM) | 8 (≈ 30.6 µM) | 4 (≈ 15.3 µM) | 
NC[C@H]1O[C@H](O[C@H]2[C@H](O)[C@@H](O[C@H]3O[C@H](CO)[C@@H](O)[C@H](N)[C@H]3O)[C@H](N)C[C@@H]2N)[C@H](N)C[C@@H]1O [TOBRAMYCIN] |  |  |  |  |  | 0.4 (≈ 0.856 µM) | 0.4 (≈ 0.856 µM) | 0.4 (≈ 0.856 µM) | 0.2 (≈ 0.428 µM) | 0.2 (≈ 0.428 µM) | 0.4 (≈ 0.856 µM) | 0.4 (≈ 0.856 µM) | 0.4 (≈ 0.856 µM) | 0.4 (≈ 0.856 µM) | 0.2 (≈ 0.428 µM) | 0.2 (≈ 0.428 µM) | 0.2 (≈ 0.428 µM) | 0.4 (≈ 0.856 µM) | 0.2 (≈ 0.428 µM) | 0.2 (≈ 0.428 µM) | 
